This note sets out measurements from PMC8294059, “Identification and Immune Assessment of T Cell Epitopes in Five Plasmodium falciparum Blood Stage Antigens to Facilitate Vaccine Candidate Selection and Optimization” (Frontiers in Immunology, 2021).

Where a SMILES comes first, the peptide text is derived from it.

In one experiment the target is HLA-A*2402 (Homo sapiens, UniProt P04439, D101N/D140Y/D185E/E176V/E190D/F33S/G103R/G107R/I119L/I121M/I306V/K335N/L105A/L180Q/L300P/N151K/N90K/Q86E/Q94H/R106L/R138H/R89G/T104I/T345S/V100E/W191G/Y123F). The experiment can be described thus: In vitro class I HLA binding assay (fluorescence polarization competition). Conditions: allele A*2402; cell-free competition, fluorescence polarization at 72 hours; Non-binder = no dose-dependent inhibition; read-out: IC50. An outline of the steps:
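Cell-free competition assay: HLA heat-treated 53°C for 15 min to strip endogenous peptides, then mixed with fluorescent high-affinity control peptide and test peptides for 72 h to equilibrium. Displacement read by fluorescence polarization as percent inhibition; IC50 derived from a concentration range.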
For orientation: Polarisation of emitted light reports the rotation of a fluorescent probe.
Regarding `CC[C@H](C)[C@H](NC(=O)[C@H](CCCCN)NC(=O)[C@H](CC(N)=O)NC(=O)[C@H](CCC(=O)O)NC(=O)[C@H](C)NC(=O)[C@H](CCCCN)NC(=O)[C@@H](NC(=O)[C@H](CO)NC(=O)[C@H](Cc1ccc(O)cc1)NC(=O)CN)[C@@H](C)O)C(=O)O` [EBA175_0255] (H-GYSTKAENKI-OH), the IC50 came out at 1840 nM.
Same read-out and setting: the same measure for `CC(C)C[C@H](NC(=O)[C@H](CCCCN)NC(=O)[C@H](CCCCN)NC(=O)[C@H](CC(=O)O)NC(=O)[C@H](Cc1ccc(O)cc1)NC(=O)[C@H](CC(C)C)NC(=O)[C@H](CC(N)=O)NC(=O)[C@H](Cc1ccc(O)cc1)NC(=O)[C@@H](N)CCCNC(=N)N)C(=O)O` [EBA175_1316] (H-RYNLYDKKL-OH): 172 nM; for `C[C@@H](O)[C@H](NC(=O)[C@H](Cc1ccccc1)NC(=O)[C@H](Cc1ccc(O)cc1)NC(=O)[C@@H](N)CO)C(=O)N[C@@H](Cc1ccc(O)cc1)C(=O)N[C@@H](CC(=O)O)C(=O)N[C@@H](CO)C(=O)N[C@@H](CCC(=O)O)C(=O)N[C@@H](CCC(=O)O)C(=O)N[C@@H](Cc1ccc(O)cc1)C(=O)O` [EBA175_1390] (H-SYFTYDSEEY-OH): 22300 nM.

The same experiment, now with this note: allele A*2402; fluorescence polarization competition; read-out: IC50 (nM), in vitro HLA binding affinity.
As for `CC(C)C[C@H](NC(=O)[C@H](CCCCN)NC(=O)[C@H](Cc1ccc(O)cc1)NC(=O)[C@@H](N)CC(N)=O)C(=O)NCC(=O)N[C@H](C(=O)N[C@@H](CCC(N)=O)C(=O)N[C@@H](Cc1ccc(O)cc1)C(=O)N[C@@H](Cc1ccccc1)C(=O)N[C@@H](Cc1ccccc1)C(=O)O)C(C)C` [CYRPA_218] (H-NYKLGVQYFF-OH), the IC50 is 26300 nM.
With `CC[C@H](C)[C@H](N)C(=O)N[C@@H](Cc1ccccc1)C(=O)N[C@@H](Cc1ccccc1)C(=O)N[C@@H](CC(N)=O)C(=O)N[C@@H](CC(N)=O)C(=O)N[C@@H](CCC(=O)O)C(=O)N[C@@H](CC(N)=O)C(=O)N[C@@H](CO)C(=O)N[C@H](C(=O)O)[C@@H](C)CC` [CYRPA_305] (H-IFFNNENSI-OH), the IC50 amounted to 56.9 nM.
The same measure, in the same setting: the same measure for `CC[C@H](C)[C@H](NC(=O)[C@H](Cc1ccccc1)NC(=O)[C@H](CC(C)C)NC(=O)[C@H](Cc1ccc(O)cc1)NC(=O)[C@@H](N)CCCCN)C(=O)N1CCC[C@H]1C(=O)N[C@@H](CO)C(=O)N[C@@H](Cc1c[nH]cn1)C(=O)N[C@@H](CC(N)=O)C(=O)O` [RH5_096] (H-KYLFIPSHN-OH): 6120 nM.
Still for that read-out and setting: under `CC[C@H](C)[C@H](NC(=O)[C@H](Cc1ccccc1)NC(=O)[C@@H](N)CC(C)C)C(=O)N1CCC[C@H]1C(=O)N[C@@H](CO)C(=O)N[C@@H](Cc1c[nH]cn1)C(=O)N[C@@H](CC(N)=O)C(=O)N[C@@H](CO)C(=O)N[C@@H](Cc1ccccc1)C(=O)O` [RH5_098] (H-LFIPSHNSF-OH) stands 141 nM.
Same read-out and setting: the same measure for `CC[C@H](C)[C@H](NC(=O)[C@H](Cc1ccccc1)NC(=O)[C@@H](N)CO)C(=O)N[C@@H](CCCCN)C(=O)N[C@@H](CCCCN)C(=O)N[C@@H](Cc1ccc(O)cc1)C(=O)N[C@@H](CO)C(=O)N[C@H](C(=O)N[C@@H](Cc1ccccc1)C(=O)O)C(C)C` [RH5_105] (H-SFIKKYSVF-OH): 38.3 nM; for `CC[C@H](C)[C@H](NC(=O)[C@@H](NC(=O)[C@H](Cc1ccccc1)NC(=O)[C@@H](N)CC(=O)O)C(C)C)C(=O)N[C@H](C(=O)N1CCC[C@H]1C(=O)N[C@@H](Cc1c[nH]cn1)C(=O)N[C@@H](Cc1ccc(O)cc1)C(=O)N[C@H](C(=O)N[C@@H](Cc1ccccc1)C(=O)O)[C@@H](C)O)[C@@H](C)CC` [RH5_172] (H-DFVIIPHYTF-OH): 289 nM; for `CC(C)C[C@H](NC(=O)[C@H](Cc1c[nH]cn1)NC(=O)[C@H](CCCCN)NC(=O)[C@H](Cc1ccc(O)cc1)NC(=O)[C@H](Cc1ccc(O)cc1)NC(=O)[C@H](CC(=O)O)NC(=O)[C@H](CC(C)C)NC(=O)[C@H](Cc1ccccc1)NC(=O)[C@@H](N)[C@@H](C)O)C(=O)O` [RH5_180] (H-TFLDYYKHL-OH): 215 nM.
Regarding `CC[C@H](C)[C@H](NC(=O)[C@H](CO)NC(=O)[C@H](CC(N)=O)NC(=O)[C@H](Cc1ccc(O)cc1)NC(=O)[C@@H](N)CO)C(=O)N[C@@H](Cc1ccc(O)cc1)C(=O)N[C@@H](Cc1c[nH]cn1)C(=O)N[C@@H](CCCCN)C(=O)N[C@@H](CO)C(=O)O` [RH5_189] (H-SYNSIYHKS-OH), the IC50 is 57700 nM.

Usually IC50 stands for the point on the concentration scale where inhibition reaches its midpoint.
